Results from patent publication US6613322B2, “Method for treating a subject suffering from conditions associated with an extracellular zinc sphingomyelinase” (The Trustees of Columbia University in the City of New York, priority 1997, dated 2003).

Test system: S-SMase of HUVECs
Experiment: Immunoblot of S-SMase from conditioned medium of HUVECs
Type: cell-based, human
Conditions: conditioned medium of IL-1β-treated HUVECs
Method: FIG. 26. Immunoblot analysis of L- and S-SMase from control and IL-1β-treated HUVECs. HUVECs were incubated for 18 h in DMEM, 0.2% BSA alone (Con) or containing human recombinant interleukin-1β (5 ng/ml) (IL1β). SMase was partially purified from the cell homogenates and conditioned media of these cells, and then aliquots derived from equivalent numbers of cells were subjected to immunoblot analysis. Specifically, conditioned medium from control and IL-1(-treated cells yielded 256.0 and 262.5 μg of concanavalin A eluate protein, of which 60.8 μg and 60.0 μg aliquots were loaded onto the SDS-PAGGE gel, respectively. Cell homogenates from control and IL-1β-treated cells yielded 168.1 and 160.6 μg of DEAE flow-through protein, of which 59.5 μg and 60.0 μg aliquots were loaded onto the SDS-PAGGE gel, respectively. No band at the molecular weight of L-SMase was visible in conditioned media (right-hand panels), even when overexposed.
Partial Purification of L- and S-SMase from HUVECs—A modification of previously published procedures (39) was used. Cells were scraped in ice-cold 40 mM Tris-HCl, 0.1 mM ZnCl2, 0.1% NP-40, pH 7.2 (Buffer A), disrupted by sonication on ice using three 5-second bursts (Branson 450 Sonifier) and centrifuged at 100,000×g for one hour. […]

IL-1β: human recombinant interleukin-1β
increase of higher-Mr S-SMase by densitometry of immunoblot: approximately two-fold
